Like-named read-outs stand apart in the source and are kept apart here. Some results are limits rather than exact numbers.

The conditions of series [1]: rcm bond.
In series [2] the target is T1, purified human Factor XIa (Homo sapiens, UniProt P03951).
T1 construct: purchased Haematologic Technologies
Description: Factor XIa inhibition assay (chromogenic substrate hydrolysis, Ki). Format: biochemical. To be noted: substrate S-2366, pH 7.4.

For series [3], the target named is T2, purified human plasma kallikrein (Homo sapiens, UniProt P03952).
T2 construct: Plasma prekallikrein is a zymogen of a trypsin-like serine protease; purchased Enzyme Research Laboratories
T2 sequence (P03952 391-638 limits assumed): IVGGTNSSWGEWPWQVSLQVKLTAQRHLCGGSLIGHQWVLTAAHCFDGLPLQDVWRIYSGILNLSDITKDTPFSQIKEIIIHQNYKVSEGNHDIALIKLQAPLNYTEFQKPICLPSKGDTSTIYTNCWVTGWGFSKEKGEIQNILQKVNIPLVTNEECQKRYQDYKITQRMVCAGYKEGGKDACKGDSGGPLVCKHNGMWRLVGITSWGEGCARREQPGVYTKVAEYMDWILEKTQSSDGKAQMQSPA
T2 sequence (P03952 20-390 partner limits assumed): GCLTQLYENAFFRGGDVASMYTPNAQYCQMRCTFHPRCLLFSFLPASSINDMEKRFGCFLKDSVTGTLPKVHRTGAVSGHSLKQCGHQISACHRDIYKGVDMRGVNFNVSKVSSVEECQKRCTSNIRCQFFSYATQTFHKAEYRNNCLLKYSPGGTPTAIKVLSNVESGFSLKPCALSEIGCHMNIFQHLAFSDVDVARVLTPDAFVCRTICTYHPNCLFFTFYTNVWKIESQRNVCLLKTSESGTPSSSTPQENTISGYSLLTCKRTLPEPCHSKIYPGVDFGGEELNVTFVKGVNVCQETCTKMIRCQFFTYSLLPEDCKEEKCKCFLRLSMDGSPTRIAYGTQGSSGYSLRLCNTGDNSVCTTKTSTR
Kind of series: Plasma kallikrein inhibition assay (chromogenic substrate hydrolysis, Ki). Particulars: substrate S-2302, pH 7.5. The format is biochemical.

T1 sequence (P03951 388-625 limits assumed): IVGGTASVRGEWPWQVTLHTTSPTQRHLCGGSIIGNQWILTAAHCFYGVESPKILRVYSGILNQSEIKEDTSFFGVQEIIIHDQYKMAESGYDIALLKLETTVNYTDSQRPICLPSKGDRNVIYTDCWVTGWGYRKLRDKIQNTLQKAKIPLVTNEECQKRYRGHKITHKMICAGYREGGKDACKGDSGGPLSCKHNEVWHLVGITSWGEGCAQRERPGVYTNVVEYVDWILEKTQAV
T1 sequence (P03951 19-387 partner limits assumed): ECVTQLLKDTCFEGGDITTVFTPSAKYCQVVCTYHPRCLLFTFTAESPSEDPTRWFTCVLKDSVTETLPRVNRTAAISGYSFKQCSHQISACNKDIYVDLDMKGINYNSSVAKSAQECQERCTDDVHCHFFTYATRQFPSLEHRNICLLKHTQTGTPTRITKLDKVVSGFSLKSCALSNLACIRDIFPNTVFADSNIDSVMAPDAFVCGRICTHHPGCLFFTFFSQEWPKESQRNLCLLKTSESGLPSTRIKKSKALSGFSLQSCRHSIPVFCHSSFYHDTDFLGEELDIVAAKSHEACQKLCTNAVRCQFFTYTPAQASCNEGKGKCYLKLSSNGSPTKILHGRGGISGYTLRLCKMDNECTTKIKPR

With `CC(C)(C)OC(=O)N[C@H]1CC=CCCNC(=O)[C@@H]2C[C@@H]2c2ccnc1c2`, the ring closure, isolated yield in series [1] (from C=CCCNC(=O)[C@@H]1C[C@@H]1c1ccnc([C@H](CC=C)NC(=O)OC(C)(C)C)c1, 13-membered ring, Grubbs II (0.2 eq)/pTsOH, DCM, 4.7 mM, 40.0 °C, 2.0 h) came to 65%.
For the molecule `COC(=O)[C@H]1Cc2cccc(c2)[C@@H](NC(=O)OCc2ccccc2)C/C=C/[C@@H](C)C(=O)N1`, the ring closure, isolated yield in series [1] (from C=CC[C@H](NC(=O)OCc1ccccc1)c1cccc(C[C@@H](NC(=O)[C@H](C)C=C)C(=O)OC)c1, 12-membered ring, Grubbs II (0.2 eq), microwave 45 min, DCE, 9.8 mM, 120.0 °C, 0.75 h) amounted to 53.2%.
For the molecule `C[C@@H]1/C=C/C[C@H](NC(=O)OC(C)(C)C)c2cc(ccn2)C(C)(C)CNC1=O`, the ring closure, isolated yield in series [1] (from C=CC[C@H](NC(=O)OC(C)(C)C)c1cc(C(C)(C)CNC(=O)[C@H](C)C=C)ccn1, 12-membered ring, Grubbs II (0.4 eq), microwave 30 min, DCE, 49.8 mM, 120.0 °C, 0.5 h) amounted to 43%.
With `C[C@@H]1/C=C/C[C@H](NC(=O)OCc2ccccc2)c2cccc(c2)C[C@H](CC#N)NC1=O`, the ring closure, isolated yield in series [1] (from C=CC[C@H](NC(=O)OCc1ccccc1)c1cccc(C[C@H](CC#N)NC(=O)[C@H](C)C=C)c1, 12-membered ring, Grubbs II (0.2 eq), microwave 30 min, DCE, 8.5 mM, 120.0 °C, 0.5 h) stood at 56.2%.
In general, Ki refers to the dissociation constant of the complex between target and ligand, obtained from inhibition or displacement. In series [2], `CC(=O)N1CCCC2NC(=O)[C@H](C)CCC[C@H](n3cnc(-c4c(-n5cc(Cl)nn5)ccc(Cl)c4F)cc3=O)c3cccc(c3)C21` (single isomer, unassigned) [Example 25] gave a Ki of 1420 nM.
Consider `CC(=O)N1CCCC2NC(=O)[C@H](C)CCC[C@H](n3cnc(-c4c(-n5cc(Cl)nn5)ccc(Cl)c4F)cc3=O)c3cccc(c3)C21` (single isomer, unassigned) [Example 26], for which the Ki was 120 nM in series [2] and 6970 nM in series [3].
On to `C[C@@H]1CCC[C@H](n2cnc(-c3cc(Cl)ccc3-n3cc(C(F)(F)F)nn3)cc2=O)c2cccc(c2)C2C(CCCN2C)NC1=O` (single isomer, unassigned) [Example 27], for which the Ki in series [2] was less than 5 nM; in series [3], 409 nM.
`C[C@@H]1CCC[C@H](n2cnc(-c3cc(Cl)ccc3-n3cc(C(F)(F)F)nn3)cc2=O)c2cccc(c2)C2C(CCCN2C)NC1=O` (single isomer, unassigned) [Example 28]: the Ki in series [2] worked out at 1130 nM; in series [3] it was 11200 nM.
On to `COC(=O)[C@H]1Cc2cccc(c2)[C@@H](n2cnc(-c3cc(Cl)ccc3-n3cc(Cl)nn3)cc2=O)CCC[C@@H](C)C(=O)N1` [Example 1, methyl (3R,6R,10S)-10-{4-[5-chloro-2-(4-chloro-1H-1,2,3-triazol-1-yl)phenyl]-6-oxo-1,6-dihydropyrimidin-1-yl}-6-methyl-5-oxo-4-azabicyclo[9.3.1]pentadeca-1(15),11,13-triene-3-carboxylate], for which the Ki in series [2] turned out to be 53 nM.
In turn, `C[C@@H]1CCC[C@H](n2cnc(-c3cc(Cl)ccc3-n3cc(C(F)(F)F)nn3)cc2=O)c2cccc(c2)C[C@H](CO)NC1=O` [Example 2, (3R,6R,10S)-10-(4-{5-chloro-2-[4-(trifluoromethyl)-1H-1,2,3-triazol-1-yl]phenyl}-6-oxo-1,6-dihydropyrimidin-1-yl)-3-(hydroxymethyl)-6-methyl-4-azabicyclo[9.3.1]pentadeca-1(15),11,13-trien-5-one] returned an inhibitory constant (Ki) in series [2] of 445 nM.
On to `CNC(=O)OC[C@H]1Cc2cccc(c2)[C@@H](n2cnc(-c3cc(Cl)ccc3-n3cc(C(F)(F)F)nn3)cc2=O)CCC[C@@H](C)C(=O)N1` [Example 3, [(3R,6R,10S)-10-(4-{5-chloro-2-[4-(trifluoromethyl)-1H-1,2,3-triazol-1-yl]phenyl}-6-oxo-1,6-dihydropyrimidin-1-yl)-6-methyl-5-oxo-4-azabicyclo[9.3.1]pentadeca-1(15),11,13-trien-3-yl]methyl N-methylcarbamate], for which, in series [2], the Ki was 109 nM.
For the molecule `COC(=O)NCC[C@H]1Cc2cccc(c2)[C@@H](n2cnc(-c3cc(Cl)ccc3-n3cc(C(F)(F)F)nn3)cc2=O)CCC[C@@H](C)C(=O)N1` [Example 4, methyl N-{2-[(3R,6R,10S)-10-(4-{5-chloro-2-[4-(trifluoromethyl)-1H-1,2,3-triazol-1-yl]phenyl}-6-oxo-1,6-dihydropyrimidin-1-yl)-6-methyl-5-oxo-4-azabicyclo[9.3.1]pentadeca-1(15),11,13-trien-3-yl]ethyl}carbamate], the inhibitory constant (Ki) was 130 nM in series [2] and 8270 nM in series [3].
For `C[C@@H]1CCC[C@H](n2cnc(-c3cc(Cl)ccc3-n3cc(C(F)(F)F)nn3)cc2=O)c2cccc(c2)C[C@H](CC#N)NC1=O` [Example 5, 2-[(3R,6R,10S)-10-(4-{5-chloro-2-[4-(trifluoromethyl)-1H-1,2,3-triazol-1-yl]phenyl}-6-oxo-1,6-dihydropyrimidin-1-yl)-6-methyl-5-oxo-4-azabicyclo[9.3.1]pentadeca-1(15),11,13-trien-3-yl]acetonitrile], the Ki was 284 nM in series [2] and 4210 nM in series [3].
For the molecule `Cc1c(C(=O)N[C@H]2CCC[C@@H](C)C(=O)N[C@@H](CC#N)Cc3cccc2c3)ncn1-c1cccc(Cl)c1F` [Example 6, 1-(3-chloro-2-fluorophenyl)-N-[(3R,6R,10S)-3-(cyanomethyl)-6-methyl-5-oxo-4-azabicyclo[9.3.1]pentadeca-1(15),11,13-trien-10-yl]-5-methyl-1H-imidazole-4-carboxamide], the Ki came to 986 nM in series [2] and 6200 nM in series [3].
In the case of `COC(=O)NCC[C@@H]1Cc2cccc(c2)[C@@H](n2cnc(-c3cc(Cl)ccc3-n3cc(C(F)(F)F)nn3)cc2=O)CCC[C@@H](C)C(=O)N1` [Example 8, methyl N-{2-[(3S,6R,10S)-10-(4-{5-chloro-2-[4-(trifluoromethyl)-1H-1,2,3-triazol-1-yl]phenyl}-6-oxo-1,6-dihydropyrimidin-1-yl)-6-methyl-5-oxo-4-azabicyclo[9.3.1]pentadeca-1(15),11,13-trien-3-yl]ethyl}carbamate], the inhibition constant (Ki) in series [2] is no more than 5 nM; in series [3], 1790 nM.
For `C[C@@H]1CCC[C@H](n2cnc(-c3cc(Cl)ccc3-n3cc(C(F)(F)F)nn3)cc2=O)c2cccc(c2)C[C@@H](CC#N)NC1=O` [Example 9, 2-[(3S,6R,10S)-10-(4-{5-chloro-2-[4-(trifluoromethyl)-1H-1,2,3-triazol-1-yl]phenyl}-6-oxo-1,6-dihydropyrimidin-1-yl)-6-methyl-5-oxo-4-azabicyclo[9.3.1]pentadeca-1(15),11,13-trien-3-yl]acetonitrile] the same measures were 5 nM and 1290 nM.
As to `O=C1NCCCCC[C@H](n2cnc(-c3cc(Cl)ccc3-n3cc(Cl)nn3)cc2=O)c2cc(ccn2)[C@H]2C[C@@H]12` [Example 31, (2S,4R,12S)-12-{4-[5-Chloro-2-(4-chloro-1H-1,2,3-triazol-1-yl)phenyl]-6-oxo-1,6-dihydropyrimidin-1-yl}-6,14-diazatricyclo[11.3.1.0^2,^4]heptadeca-1(17),13,15-trien-5-one], the Ki in series [2] came out at 12.7 nM; in series [3], 81.4 nM.
`O=C1CCCc2ccnc(c2)[C@@H](n2cnc(-c3cc(Cl)ccc3-n3cc(Cl)nn3)cc2=O)CCCCCN1` [Example 32, (12S)-12-{4-[5-Chloro-2-(4-chloro-1H-1,2,3-triazol-1-yl)phenyl]-6-oxo-1,6-dihydropyrimidin-1-yl}-6,14-diazabicyclo[11.3.1]heptadeca-1(17),13,15-trien-5-one]: the Ki is 27.8 nM in series [2] and 1890 nM in series [3].
Take `O=C1NCC/C=C/C[C@H](n2cnc(-c3cc(Cl)ccc3-n3cc(Cl)nn3)cc2=O)c2cc(ccn2)[C@H]2C[C@@H]12` [Example 33, (2S,4R,9E,12S)-12-{4-[5-Chloro-2-(4-chloro-1H-1,2,3-triazol-1-yl)phenyl]-6-oxo-1,6-dihydropyrimidin-1-yl}-6,14-diazatricyclo[11.3.1.0^2,^4]heptadeca-1(17),9,13,15-tetraen-5-one]: the Ki in series [2] was 355 nM; in series [3], 3610 nM.
Taken in the same sequence, the figures for `O=C1NCCCCC[C@H](n2cnc(-c3cc(Cl)ccc3-n3cc(Cl)nn3)cc2=O)c2cc(ccn2)[C@@H]2C[C@H]12` [Example 34, (2R,4S,12S)-12-{4-[5-Chloro-2-(4-chloro-1H-1,2,3-triazol-1-yl)phenyl]-6-oxo-1,6-dihydropyrimidin-1-yl}-6,14-diazatricyclo[11.3.1.0^2,^4]heptadeca-1(17),13,15-trien-5-one] were 96 nM and 3100 nM.

The values are drawn from patent publication US10287288B2, “Factor XIa macrocyclic inhibitors bearing alkyl or cycloalkyl P2' moieties” (BRISTOL-MYERS SQUIBB COMPANY, priority 2015, dated 2019).
